Data from patent US20070135457A1, “Pyrido[2,3-d]pyrimidine-2,4-diamines as pde2 inhibitors” (Pfizer Inc., priority 2003, published 2007).
pIC50: −log10 of the molar value. Like-named read-outs stand apart in the source and are kept apart here.

How the values were obtained:
[1] = molecular target: T1, PDE 2 enzyme isolated from human platelets (Homo sapiens, UniProt O00408); assay: PDE 2 enzyme scintillation proximity assay (SPA); assay type: biochemical
T1 construct: PDE 2 enzyme was isolated from human platelets; from tissue; host or cells: human platelets (pooled blood from multiple donors); HiTrap Q anion-exchange fraction eluting at about 325 mM NaCl
T1 sequence (O00408 whole entry): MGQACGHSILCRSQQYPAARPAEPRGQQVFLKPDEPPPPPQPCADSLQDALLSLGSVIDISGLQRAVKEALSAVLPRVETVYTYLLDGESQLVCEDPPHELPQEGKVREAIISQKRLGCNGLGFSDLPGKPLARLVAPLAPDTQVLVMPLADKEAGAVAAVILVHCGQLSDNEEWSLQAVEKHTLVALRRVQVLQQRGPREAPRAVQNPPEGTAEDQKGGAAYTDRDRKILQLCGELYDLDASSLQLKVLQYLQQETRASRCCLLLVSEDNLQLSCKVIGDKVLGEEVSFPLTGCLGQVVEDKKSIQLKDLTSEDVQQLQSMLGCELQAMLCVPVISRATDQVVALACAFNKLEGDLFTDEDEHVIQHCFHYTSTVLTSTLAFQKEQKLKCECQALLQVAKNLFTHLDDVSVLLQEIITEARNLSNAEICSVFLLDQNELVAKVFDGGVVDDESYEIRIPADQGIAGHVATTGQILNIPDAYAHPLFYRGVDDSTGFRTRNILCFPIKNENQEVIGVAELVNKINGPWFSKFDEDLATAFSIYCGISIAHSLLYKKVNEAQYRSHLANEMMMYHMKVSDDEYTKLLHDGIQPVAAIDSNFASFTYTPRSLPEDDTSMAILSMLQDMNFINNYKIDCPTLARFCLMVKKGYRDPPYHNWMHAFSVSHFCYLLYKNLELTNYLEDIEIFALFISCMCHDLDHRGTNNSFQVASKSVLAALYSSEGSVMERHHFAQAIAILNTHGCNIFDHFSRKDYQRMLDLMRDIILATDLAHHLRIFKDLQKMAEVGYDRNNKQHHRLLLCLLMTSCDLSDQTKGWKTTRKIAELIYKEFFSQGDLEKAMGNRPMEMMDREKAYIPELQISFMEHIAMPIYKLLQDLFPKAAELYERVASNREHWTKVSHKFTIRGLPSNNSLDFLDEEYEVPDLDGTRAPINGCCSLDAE
Experimental: PDE 2 enzyme was isolated from human platelets with approximately 1.4 L of blood from multiple donors used to make the platelet pellets. Platelets were resuspended in approximately 75 mL of lysis buffer [20 mM Tris pH 7.2, 5 mM MgCl2, 250 mM Sucrose, 1 mM DTT, 1 μL/2 mL Sigma Protease inhibitor #8340; Sigma-Aldrich; St. Louis, Mo.] and lysed by sonication at 4° C., with 3 rounds of 1 min bursts then spun at 4° C. overnight at 100,000×g. Cleared lysates were loaded to AKTA Explorer FPLC (Amersham Biosciences; Piscataway, N.J.) in a series of three chromatographic separations, with an average load volume of 25 mL. A 5 mL HiTrap Q anion exchange column (Amersham Biosciences) was used. […] Two major cGMP activity fractions (PDE 5 and PDE 2) were isolated and pooled separately. The PDE 2-pooled fraction total was approximately 40 mL which was dispensed in cryovials of 200 μl/vial and placed in storage at −80° C.
The inhibitory activity of the compounds of formula (I) on recombinant or isolated PDE 2, and other PDE's, was determined using the […] scintillation proximity assay (SPA) kits from Amersham International (Little Chalfont, England). The SPA assays were performed using 96 well plates. The PDE SPA yttrium silicate beads (Amersham Biosciences) bind preferentially to the linear nucleotide, GMP, compared to the cyclic nucleotide, cGMP. ^3H-cGMP was added to the reaction and when the product, ^3H-GMP, was in […] to the beads, the scintillant within the bead was excited, which was detected using a Packard scintillation counter (Perkin-Elmer Life Sciences; Boston, Mass.). The enzyme concentration used was in the linear range and the Km of the enzyme was determined (15 uM). The final substrate concentration was <1/3 of Km (1 μM) so that IC50 values would approximate the Ki values. The assay was validated using literature compounds as controls before testing compounds. Then, PDE catalytic activity measurements obtained in the presence of the test compound, and those obtained in the absence of the test compound, were compared and the lC50 value is determined. […]

[2] = SPA, 1 μM substrate, read-out: PDE 2 Inhibition

SMILES	pIC50 ([1]; PDE 2 isolated from human platelets, read-out: IC50)	pIC50 [1, 2]	melting point [°C]
CCCCCCC(C(C)O)n1cnc2c(N)ncnc21 (stereo not drawn) [EHNA, erythro-9-(2-hydroxy-3-nonyl)adenine, reference compound]	5.77		
COc1cc(CNc2nc(NCc3cc(OC)cc(OC)c3)c3cccnc3n2)cc(OC)c1 [Example 5, N^2-N^4-Bis-(3,5-dimethoxy-benzyl)-pyrido[2,3-d]pyrimidine-2,4-diamine]		> 7.30	159 to 160
COc1ccc(CCNc2nc(NCc3cc(OC)cc(OC)c3)c3cccnc3n2)cc1 [Example 6, N^4-(3,5-Dimethoxy-benzyl)-N^2-[2-(4-methoxy-phenyl)-ethyl]-pyrido[2,3-d]pyrimidine-2,4-diamine]		6.00 to 6.60	88 to 89
COc1cc(CNc2nc(NCCc3ccc(Cl)cc3)nc3ncccc23)cc(OC)c1 [Example 8, N^2-[2-(4-Chloro-phenyl)-ethyl]-N^4-(3,5-dimethoxy-benzyl)-pyrido[2,3-d]pyrimidine-2,4-diamine]		6.00 to 6.60	85 to 90
COc1cc(CCNc2nc(NCc3cc(OC)cc(OC)c3)c3cccnc3n2)cc(OC)c1 [Example 13, N^4-(3,5-Dimethoxy-benzyl)-N^2-[2-(3,5-dimethoxy-phenyl)-ethyl]-pyrido[2,3-d]pyrimidine-2,4-diamine]		6.60 to 7.30	95 to 100
COc1ccc(CNc2nc(NCCc3cccc(F)c3)nc3ncccc23)cc1OC [Example 14, N^4-(3,4-Dimethoxy-benzyl)-N^2-[2-(3-fluoro-phenyl)-ethyl]-pyrido[2,3-d]pyrimidine-2,4-diamine]		6.60 to 7.30	227 to 228
COc1ccc(CNc2nc(NCCc3ccccc3F)nc3ncccc23)cc1OC [Example 15, N^4-(3,4-Dimethoxy-benzyl)-N^2-[2-(2-fluoro-phenyl)-ethyl]-pyrido[2,3-d]pyrimidine-2,4-diamine]		6.60 to 7.30	220 to 222
COc1ccc(CNc2nc(NCCc3ccc(F)cc3)nc3ncccc23)cc1OC [Example 16, N^4-(3,4-Dimethoxy-benzyl)-N^2-[2-(4-fluoro-phenyl)-ethyl]-pyrido[2,3-d]pyrimidine-2,4-diamine]		> 7.30	225 to 226
COc1ccc(CNc2nc(NCCc3ccccc3)nc3ncccc23)cc1OC [Example 17, N^4-(3,4-Dimethoxy-benzyl)-N^2-phenethyl-pyrido[2,3-d]pyrimidine-2,4-diamine]		> 7.30	217 to 218
COc1ccc(CNc2nc(NCCCCc3ccccc3)nc3ncccc23)cc1OC [Example 18, N^4-(3,4-Dimethoxy-benzyl)-N^2-(4-phenyl-butyl)-pyrido[2,3-d]pyrimidine-2,4-diamine]		6.60 to 7.30	194 to 195
COc1ccc(CNc2nc(NCCOc3ccccc3)nc3ncccc23)cc1OC [Example 19, N^4-(3,4-Dimethoxy-benzyl)-N^2-(2-phenoxy-ethyl)-pyrido[2,3-d]pyrimidine-2,4-diamine]		6.60 to 7.30	227 to 228
COc1ccc(CNc2nc(NCc3ccccc3C(F)(F)F)nc3ncccc23)cc1OC [Example 20, N^4-(3,4-Dimethoxy-benzyl)-N^2-(2-trifluoromethyl-benzyl)-pyrido[2,3-d]pyrimidine-2,4-diamine]		6.00 to 6.60	227 to 228
COc1ccc(CNc2nc(NCCCc3ccc(C(C)(C)O)cc3)nc3ncccc23)cc1OC [Example 21, 2-(4-{3-[4-(3,4-Dimethoxy-benzylamino)-pyrido[2,3-d]pyrimidin-2-ylamino]-propyl}-phenyl)-propan-2-ol]		6.00 to 6.60	198 to 199
COc1cc(CNc2nc(NCCCc3ccc(C(C)(C)O)cc3)nc3ncccc23)cc(OC)c1 [Example 22, 2-(4-{3-[4-(3,5-Dimethoxy-benzylamino)-pyrido[2,3-d]pyrimidin-2-ylamino]-propyl}-phenyl)-propan-2-ol]		6.60 to 7.30	70 to 75
COc1ccc(CNc2nc(NCc3ccc(C(O)C(F)(F)F)cc3)nc3ncccc23)cc1OC (stereo not drawn) [Example 23, 1-(4-{[4-(3,4-Dimethoxy-benzylamino)-pyrido[2,3-d]pyrimidin-2-ylamino]-methyl}-phenyl)-2,2,2-trifluoro-ethanol]		6.00 to 6.60	121 to 122
COc1ccc(CNc2nc(NCCCc3ccc(C(C)=O)cc3)nc3ncccc23)cc1OC [Example 24, 1-(4-{3-[4-(3,4-Dimethoxy-benzylamino)-pyrido[2,3-d]pyrimidin-2-ylamino]-propyl}-phenyl)-ethanone]		6.00 to 6.60	184 to 185
COc1ccc(CNc2nc(NCCCc3ccc(C(O)C(F)(F)F)cc3)nc3ncccc23)cc1OC (stereo not drawn) [Example 25, 1-(4-{3-[4-(3,4-Dimethoxy-benzylamino)-pyrido[2,3-d]pyrimidin-2-ylamino]-propyl}-phenyl)-2,2,2-trifluoro-ethanol]		6.60 to 7.30	222 to 224
COc1ccc(CNc2nc(NCCCc3ccc4nonc4c3)nc3ncccc23)cc1OC [Example 26, N^2-3-(Benzo[1,2,5]oxadiazol-5-yl-propyl)-N^4-(3,4-dimethoxy-benzyl)-pyrido[2,3-d]pyrrimidine-2,4-diamine]		6.00 to 6.60	191 to 193
COc1ccc(CNc2nc(NCCCc3ccc4ncsc4c3)nc3ncccc23)cc1OC [Example 27, N^2-3-(Benzothiazol-6-yl-propyl)-N^4-(3,4-dimethoxy-benzyl)-pyrido[2,3d]pyrimidine-2,4-diamine]		6.00 to 6.60	191 to 193
COc1ccc(CNc2nc(NCCCc3cccc(C4(C)OCCO4)c3)nc3ncccc23)cc1OC [Example 28, N^4-(3,4-Dimethoxy-benzyl)-N^2-{3-[3-(2-methyl-[1,3]-dioxolan-2-yl)-phenyl]-propyl}-pyrido[2,3-d]pyrimidine-2,4-diamine]		6.00 to 6.60	

Other lines, results leading:

pIC50 ([1]; PDE 2 isolated from human platelets, read-out: IC50)	pIC50 [1, 2]	melting point [°C]	SMILES
	6.60 to 7.30	157 to 158	COc1cc(CNc2nc(NCCc3ccccn3)nc3ncccc23)cc(OC)c1 [Example 1, N^4-(3,5-Dimethoxy-benzyl)-N^2-(2-pyridin-2-yl-ethyl)-pyrido[2,3-d]pyrimidine-2,4-diamine]
	6.60 to 7.30	185 to 186	COc1cc(CNc2nc(NCCc3cccnc3)nc3ncccc23)cc(OC)c1 [Example 2, N^4-(3,5-Dimethoxy-benzyl)-N^2-(2-pyridin-3-yl-ethyl)-pyrido[2,3-d]pyrimidine-2,4-diamine]
	6.00 to 6.60	222 to 223	COc1cc(CNc2nc(NCc3cccnc3)nc3ncccc23)cc(OC)c1 [Example 4, N^4-(3,5-Dimethoxy-benzyl)-N^2-2-pyridin-3-ylmethyl-pyrido[2,3-d]pyrimidine-2,4-diamine]
	6.60 to 7.30		COc1cc(CNc2nc(NCCCc3ccccc3)nc3ncccc23)cc(OC)c1 [Example 7, N^4-(3,5-Dimethoxy-benzyl)-N^2-(3-phenyl-propyl)-pyrido[2,3-d]pyrimidine-2,4-diamine]
	6.00 to 6.60	84 to 85	COc1cc(CNc2nc(NCc3ccccc3)nc3ncccc23)cc(OC)c1 [Example 9, N^2-Benzyl-N^4-(3,5-dimethoxy-benzyl)-pyrido[2,3-d]pyrimidine-2,4-diamine]
	> 7.30	120 to 121	COc1cc(CNc2nc(NCCc3cccs3)nc3ncccc23)cc(OC)c1 [Example 10, N^4-(3,5-Dimethoxy-benzyl)-N^2-(2-thiophen-2-yl-ethyl)-pyrido[2,3-d]pyrimidine-2,4-diamine]
	6.00 to 6.60	105 to 109	COc1cc(CNc2nc(NCc3ccc(C(C)(C)O)cc3)nc3ncccc23)cc(OC)c1 [Example 11, 2-(4-{[4-(3,5-Dimethoxy-benzylamino)-pyrido[2,3-d]pyrmidin-2-ylamino]-methyl}-phenyl)-propan-2-ol]
	6.60 to 7.30	112 to 114	COc1cc(CNc2nc(NCCc3ccccc3)nc3ncccc23)cc(OC)c1 [Example 12, N^4-(3,5-Dimethoxy-benzyl)-N^2-2-phenethyl-pyrido[2,3-d]pyrimidine-2,4-diamine]
	6.00 to 6.60		COc1cc(CNc2nc(NCCCc3ccncc3)nc3ncccc23)cc(OC)c1 [Example 31, N^4-(3,5-Dimethoxy-benzyl)-N^2-(3-pyridin-4-yl-propyl)-pyrido[2,3d]pyrimidine-2,4-diamine]
